From ChEMBL document CHEMBL1687730, “New high-throughput screening assay to reveal similarities and differences in inhibitory sensitivities of multidrug ATP-binding cassette transporters” (Antimicrob Agents Chemother, 2009)

How the values were obtained:
[1] = target: Pleiotropic ABC efflux transporter of multiple drugs (Saccharomyces cerevisiae S288c) (UniProt P33302); assay: Inhibition of Saccharomyces cerevisiae MKPDR5h multidrug transporter Pdr5p assessed as concentration required to threefold increase in rate of fluorescence signal relative to absence of inhibitor by fluorescein diacetate based high-throughput screening spectrofluorometric assay
Sequence of Pleiotropic ABC efflux transporter of multiple drugs (Saccharomyces cerevisiae S288c) (P33302 whole entry): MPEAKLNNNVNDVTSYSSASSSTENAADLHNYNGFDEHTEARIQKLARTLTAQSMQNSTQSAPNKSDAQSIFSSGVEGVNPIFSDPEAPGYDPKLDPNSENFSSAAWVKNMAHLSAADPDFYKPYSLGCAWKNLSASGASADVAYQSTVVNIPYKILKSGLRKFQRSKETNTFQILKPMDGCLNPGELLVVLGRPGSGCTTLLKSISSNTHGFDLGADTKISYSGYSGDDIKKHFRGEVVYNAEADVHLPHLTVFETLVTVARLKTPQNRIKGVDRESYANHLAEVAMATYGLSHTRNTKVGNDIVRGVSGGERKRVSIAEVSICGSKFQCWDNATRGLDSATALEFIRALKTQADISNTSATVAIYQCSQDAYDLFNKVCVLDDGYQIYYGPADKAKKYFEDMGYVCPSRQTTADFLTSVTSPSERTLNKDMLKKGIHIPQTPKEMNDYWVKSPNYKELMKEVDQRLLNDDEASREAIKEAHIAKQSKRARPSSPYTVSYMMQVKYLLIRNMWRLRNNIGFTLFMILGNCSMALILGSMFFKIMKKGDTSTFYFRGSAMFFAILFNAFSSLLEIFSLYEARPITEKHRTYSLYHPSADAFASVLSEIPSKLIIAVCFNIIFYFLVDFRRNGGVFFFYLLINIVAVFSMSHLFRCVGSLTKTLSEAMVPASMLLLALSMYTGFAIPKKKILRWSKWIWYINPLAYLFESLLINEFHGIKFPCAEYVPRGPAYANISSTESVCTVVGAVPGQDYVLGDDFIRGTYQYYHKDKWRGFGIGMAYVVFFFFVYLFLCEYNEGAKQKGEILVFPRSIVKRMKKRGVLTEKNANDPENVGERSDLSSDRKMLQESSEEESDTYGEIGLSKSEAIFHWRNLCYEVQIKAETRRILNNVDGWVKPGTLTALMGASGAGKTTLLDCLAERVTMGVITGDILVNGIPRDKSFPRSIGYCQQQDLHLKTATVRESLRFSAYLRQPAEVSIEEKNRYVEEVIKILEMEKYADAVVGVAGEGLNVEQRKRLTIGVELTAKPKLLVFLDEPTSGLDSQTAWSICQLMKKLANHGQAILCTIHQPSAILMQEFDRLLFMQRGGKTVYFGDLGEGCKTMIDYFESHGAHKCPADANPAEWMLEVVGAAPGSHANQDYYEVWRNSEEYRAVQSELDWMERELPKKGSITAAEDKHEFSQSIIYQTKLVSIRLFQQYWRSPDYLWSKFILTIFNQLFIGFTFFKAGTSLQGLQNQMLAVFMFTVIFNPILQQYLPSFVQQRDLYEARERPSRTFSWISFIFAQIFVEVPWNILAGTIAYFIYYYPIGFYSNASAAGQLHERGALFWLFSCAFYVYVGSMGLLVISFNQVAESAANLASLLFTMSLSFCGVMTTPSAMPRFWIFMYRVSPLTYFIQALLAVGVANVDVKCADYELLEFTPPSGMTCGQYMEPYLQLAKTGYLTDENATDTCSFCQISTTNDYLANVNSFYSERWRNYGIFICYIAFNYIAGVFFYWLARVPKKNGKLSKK

[2] = test system: Saccharomyces cerevisiae; assay: Inhibition of Saccharomyces cerevisiae MKCDR1h multidrug transporter Cdr1p assessed as concentration required to threefold increase in rate of fluorescence signal relative to absence of inhibitor by fluorescein diacetate based high-throughput screening spectrofluorometric assay
[3] = target: Pleiotropic ABC efflux transporter of multiple drugs (Saccharomyces cerevisiae S288c, UniProt P33302); assay: Inhibition of Pdr5p-mediated rhodamine 6G transport in Saccharomyces cerevisiae MKPDR5h plasma membrane by spectrofluorometric assay
Sequence of Pleiotropic ABC efflux transporter of multiple drugs (P33302 whole entry): as above

[4] = target: Snq2p (Saccharomyces cerevisiae (strain Lalvin EC1118 / Prise de mousse)(Baker's yeast)) (UniProt C8Z4T0); assay: Inhibition of Saccharomyces cerevisiae MKSNQ2h multidrug transporter Snq2p assessed as concentration required to threefold increase in rate of fluorescence signal relative to absence of inhibitor by fluorescein diacetate based high-throughput screening spectrofluorometric assay
Sequence of Snq2p (Saccharomyces cerevisiae (strain Lalvin EC1118 / Prise de mousse)(Baker's yeast)) (C8Z4T0 as listed by the source): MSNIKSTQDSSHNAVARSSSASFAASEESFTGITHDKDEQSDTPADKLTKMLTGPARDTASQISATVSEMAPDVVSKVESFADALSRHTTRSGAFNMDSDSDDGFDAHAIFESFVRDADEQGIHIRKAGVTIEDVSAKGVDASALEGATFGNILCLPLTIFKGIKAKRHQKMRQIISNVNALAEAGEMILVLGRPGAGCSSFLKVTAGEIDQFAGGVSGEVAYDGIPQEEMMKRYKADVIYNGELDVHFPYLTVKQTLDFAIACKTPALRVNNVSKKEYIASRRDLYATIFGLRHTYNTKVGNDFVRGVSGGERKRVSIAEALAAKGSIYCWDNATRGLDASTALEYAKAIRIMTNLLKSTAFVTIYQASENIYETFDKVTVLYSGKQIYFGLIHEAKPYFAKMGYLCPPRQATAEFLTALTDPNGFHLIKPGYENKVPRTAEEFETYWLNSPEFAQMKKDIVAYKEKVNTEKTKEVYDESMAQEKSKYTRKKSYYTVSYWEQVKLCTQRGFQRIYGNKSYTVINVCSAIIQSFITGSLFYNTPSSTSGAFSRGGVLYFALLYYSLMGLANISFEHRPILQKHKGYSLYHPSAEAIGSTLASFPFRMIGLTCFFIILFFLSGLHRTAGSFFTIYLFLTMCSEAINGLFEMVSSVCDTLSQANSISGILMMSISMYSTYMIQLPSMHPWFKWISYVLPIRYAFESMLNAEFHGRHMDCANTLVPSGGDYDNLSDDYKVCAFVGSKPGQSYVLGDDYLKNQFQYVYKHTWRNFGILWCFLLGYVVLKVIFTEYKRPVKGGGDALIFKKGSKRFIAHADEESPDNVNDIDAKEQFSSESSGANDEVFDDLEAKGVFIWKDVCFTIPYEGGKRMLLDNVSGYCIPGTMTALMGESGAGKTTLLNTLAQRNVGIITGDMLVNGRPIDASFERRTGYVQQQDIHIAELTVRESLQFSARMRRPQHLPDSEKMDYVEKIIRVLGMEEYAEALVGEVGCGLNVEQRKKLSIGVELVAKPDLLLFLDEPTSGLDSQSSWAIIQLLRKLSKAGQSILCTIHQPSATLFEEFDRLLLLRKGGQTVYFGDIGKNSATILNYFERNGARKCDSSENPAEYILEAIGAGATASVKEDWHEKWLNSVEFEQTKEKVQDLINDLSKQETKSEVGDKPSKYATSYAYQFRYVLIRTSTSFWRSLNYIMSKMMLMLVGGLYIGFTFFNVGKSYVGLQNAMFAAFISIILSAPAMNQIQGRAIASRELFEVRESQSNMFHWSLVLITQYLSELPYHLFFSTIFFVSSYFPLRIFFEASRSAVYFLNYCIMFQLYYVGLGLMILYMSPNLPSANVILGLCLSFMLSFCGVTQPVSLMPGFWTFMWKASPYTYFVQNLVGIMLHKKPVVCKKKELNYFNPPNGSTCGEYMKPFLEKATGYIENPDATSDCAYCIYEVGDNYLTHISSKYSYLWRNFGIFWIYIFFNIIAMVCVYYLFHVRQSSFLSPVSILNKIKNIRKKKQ

[5] = test system: Saccharomyces cerevisiae; assay: Inhibition of Saccharomyces cerevisiae MKCDR1h multidrug transporter Cdr1p assessed as potentiation of ketoconazole-induced antifungal activity by Checkerboard assay

Structure (SMILES): NCCCCN1c2ccccc2Sc2ccc(Cl)cc21
- INH [1]: 1.9 µM
- INH [2]: 1.9 µM
- IC50 [3]: 0.7 µM
- INH [4]: 2.1 µM
- fractional inhibitory concentration index (FICI) [5]: 0.06

Structure (SMILES): NCCCCN1c2ccccc2Sc2ccc(C(F)(F)F)cc21
- INH [1]: 3.7 µM
- INH [2]: 4.6 µM
- IC50 [3]: 1.3 µM
- INH [4]: 4.6 µM

Structure (SMILES): NCCCCN1c2ccccc2Sc2ccccc21
- INH [1]: 7 µM
- INH [2]: 29 µM
- IC50 [3]: 3.1 µM
- INH [4]: 13.5 µM

Structure (SMILES): NCCCN1c2ccccc2Sc2ccc(C(F)(F)F)cc21
- INH [1]: 7.7 µM
- INH [2]: 6.5 µM
- IC50 [3]: 6.4 µM
- INH [4]: 6.9 µM

Structure (SMILES): NCCCN1c2ccccc2Sc2ccccc21
- INH [1]: 14.7 µM
- INH [2]: 36 µM
- IC50 [3]: 7.4 µM
- INH [4]: 12.4 µM

Structure (SMILES): CSc1ccc2c(c1)N(CCC1CCCCN1C)c1ccccc1S2 (stereo not drawn)
- INH [1]: 17 µM
- INH [2]: 26 µM
- INH [4]: 19.4 µM

Structure (SMILES): O=C(O)CCCCCCNC1c2ccccc2CCc2ccccc21 [AMINEPTINE]
- INH [1]: > 433 µM
- INH [2]: > 433 µM
- IC50 [3]: > 400 µM
- INH [4]: > 433 µM

Structure (SMILES): CN(C)CCCN1c2ccccc2Sc2ccc(Cl)cc21 [CHLORPROMAZINE]
- INH [1]: 57 µM
- INH [2]: 57 µM
- IC50 [3]: 4.5 µM
- INH [4]: 32 µM

Structure (SMILES): CN(C)CC/C=C1/c2ccccc2Sc2ccc(Cl)cc21 [CHLORPROTHIXENE]
- INH [1]: 26 µM
- INH [2]: 53 µM
- IC50 [3]: 5.1 µM
- INH [4]: 22 µM

Structure (SMILES): COc1ccc2c(c1)N(C[C@@H](C)CN(C)C)c1ccccc1S2 [DEXTROMEPROMAZINE]
- INH [1]: 101 µM
- INH [2]: 273 µM
- IC50 [3]: 9 µM
- INH [4]: 100 µM

Structure (SMILES): CCN(CC)CCN1c2ccccc2Sc2ccccc21 [DIETHAZINE]
- INH [1]: 331 µM
- INH [2]: 317 µM
- IC50 [3]: 10.3 µM
- INH [4]: 239 µM

Structure (SMILES): OCCN1CCN(CCCN2c3ccccc3Sc3ccc(C(F)(F)F)cc32)CC1 [FLUPHENAZINE]
- INH [1]: 5.4 µM
- INH [2]: 12.4 µM
- IC50 [3]: 1.7 µM
- INH [4]: 8.8 µM
- fractional inhibitory concentration index (FICI) [5]: 0.09

Structure (SMILES): CN(C)CCCN1c2ccccc2CCc2ccccc21 [IMIPRAMINE]
- INH [1]: 166 µM
- INH [2]: > 433 µM
- IC50 [3]: 22 µM
- INH [4]: 198 µM

Structure (SMILES): COc1ccc2c(c1)N(C[C@H](C)CN(C)C)c1ccccc1S2 [LEVOMEPROMAZINE]
- INH [1]: 128 µM
- INH [2]: 252 µM
- IC50 [3]: 9.6 µM
- INH [4]: 100 µM

Structure (SMILES): NCCCN1c2ccccc2Sc2ccc(Cl)cc21 [NOR2-CHLORPROMAZINE]
- INH [1]: 4.2 µM
- INH [2]: 4.3 µM
- IC50 [3]: 3.2 µM
- INH [4]: 5.8 µM

Structure (SMILES): OCCN1CCN(CCCN2c3ccccc3Sc3ccc(Cl)cc32)CC1 [PERPHENAZINE]
- INH [1]: 6.4 µM
- INH [2]: 17.2 µM
- IC50 [3]: 1.4 µM
- INH [4]: 13.1 µM

Structure (SMILES): c1ccc2c(c1)Nc1ccccc1S2 [PHENOTHIAZINE]
- INH [1]: > 433 µM
- INH [2]: > 433 µM
- IC50 [3]: > 400 µM
- INH [4]: 90 µM

Structure (SMILES): CN1CCN(CCCN2c3ccccc3Sc3ccc(Cl)cc32)CC1 [PROCHLORPERAZINE]
- INH [1]: 7.2 µM
- INH [2]: 11 µM
- IC50 [3]: 1.7 µM
- INH [4]: 6.6 µM

Structure (SMILES): CN(C)CCCN1c2ccccc2Sc2ccccc21 [PROMAZINE]
- INH [1]: 96 µM
- INH [2]: 278 µM
- IC50 [3]: 11.3 µM
- INH [4]: 131 µM

Structure (SMILES): CC(CN1c2ccccc2Sc2ccccc21)N(C)C (stereo not drawn) [PROMETHAZINE]
- INH [1]: 285 µM
- INH [2]: 275 µM
- IC50 [3]: 17.7 µM
- INH [4]: 117 µM

Structure (SMILES): CCSc1ccc2c(c1)N(CCCN1CCN(C)CC1)c1ccccc1S2 [THIETHYLPERAZINE]
- INH [1]: 5.6 µM
- INH [2]: 9.4 µM
- IC50 [3]: 2.3 µM
- INH [4]: 3.2 µM

Structure (SMILES): CN1CCN(CCCN2c3ccccc3Sc3ccc(C(F)(F)F)cc32)CC1 [TRIFLUOPERAZINE]
- INH [1]: 8.3 µM
- INH [2]: 9.8 µM
- IC50 [3]: 1.4 µM
- INH [4]: 6.9 µM

Structure (SMILES): CN(C)CCCN1c2ccccc2Sc2ccc(C(F)(F)F)cc21 [TRIFLUPROMAZINE]
- INH [1]: 47 µM
- INH [2]: 49 µM
- IC50 [3]: 4.9 µM
- INH [4]: 47 µM
